In US20220324865A1 (Bayer Aktiengesellschaft, priority 2018, published 2022):

These compounds were tested against T1, human EP3 receptor (Homo sapiens, UniProt P43115) (assay: Cellular in vitro assay for determining EP3 receptor activity (human EP3 cell line, sulprostone-stimulated calcium luminescence)). Settings: CHO cells expressing human EP3 and mitochondrial Clytin; antagonist mode, sulprostone at EC50; read-out: EP3 CHO mtCLY ANTAG IC50.
T1 construct: expressed in transfected cells; host or cells: CHO K1 (Chinese Hamster Ovary), stably co-transfected with Galpha16 and mitochondrial clytin
T1 sequence (P43115 1-390): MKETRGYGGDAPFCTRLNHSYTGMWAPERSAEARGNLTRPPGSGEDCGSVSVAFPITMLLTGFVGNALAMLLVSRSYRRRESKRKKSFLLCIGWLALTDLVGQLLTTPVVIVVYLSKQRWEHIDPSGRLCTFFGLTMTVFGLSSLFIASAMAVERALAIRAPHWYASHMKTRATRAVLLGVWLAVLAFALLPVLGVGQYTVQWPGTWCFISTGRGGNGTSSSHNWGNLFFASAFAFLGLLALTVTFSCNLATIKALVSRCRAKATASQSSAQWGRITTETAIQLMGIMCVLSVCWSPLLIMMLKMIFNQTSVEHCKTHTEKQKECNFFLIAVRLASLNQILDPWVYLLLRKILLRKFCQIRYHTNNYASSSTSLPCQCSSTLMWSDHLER
Type: cell-based
Experimental: B-1. Cellular In Vitro Assay for Determining EP3 Receptor Activity
The identification of antagonists of the EP3 receptor from humans and rats as well as the quantification of the activity of the compounds of the invention was carried out using recombinant cell lines. These cell lines originally derive from a hamsters ovary epithelial cell (Chinese Hamster Ovary, CHO K1, ATCC: American Type Culture Collection, Manassas, Va. 20108, USA). The test cell lines constitutively express the human or rat EP3 receptors. The naturally Gαi-coupled human and rat EP3 receptors were stably co-transfected with Gα16 into cells that are also stably transfected with a mitochondrial form of the calcium-sensitive photoproteins Clytin (human EP3) or Photina (rat EP3), which, after reconstitution with the cofactor coelenterazine, emit light when there are increases in free calcium concentrations (Nature 1992, 358, 325-327; Gene 1995, 153 (2), 273-274). The resulting EP3 receptor cells react to stimulation of the recombinantly expressed EP3 receptors by the agonist sulprostone with intracellular release of calcium ions, which can be quantified by the resulting photoprotein luminescence. Antagonists inhibit the receptor signaling, leading to reduced calcium release and luminescence. The bioluminescence of the cell lines is detected using a suitable luminometer (Trends Pharmacol. Sci. 1996, 17, 235-237).
Human and Rat EP3 Cell Lines:
On the day before the assay, the cells are plated out in culture medium (OptiMEM, 1% FCS, 2 mM glutamine, 10 mM HEPES, 5 μg/ml coelenterazine) in 384-well microtiter plates and kept in a cell incubator (96% humidity, 5% v/v CO2, 37° C.). On the day of the assay, test compounds in various concentrations are placed for 10 minutes in the wells of the microtiter plate before the agonist sulprostone at EC50 concentration is added. The resulting light signal is measured immediately in a luminometer. All concentrations are measured in quadruples.
Work on `O=C(N[C@@H](c1ccc(F)cc1)C(F)(F)CO)c1nn2cc(-c3ccc(Cl)c(F)c3)[nH]c(=O)c2c1C(F)F` [6-631] yielded an IC50 of 8.55 nM.
`Cc1c(C(=O)N[C@H]2CCc3ccccc32)nn2c(C)c(-c3ccc4ccccc4c3)[nH]c(=O)c12` [Example 3-29, N-[(7S)-2,3-Dihydro-1H-inden-1-yl]-3,7-dimethyl-6-(naphthalen-2-yl)-4-oxo-4,5-dihydropyrazolo[1,5-a]pyrazine-2-carboxamide] was tested, and the IC50 was 4.65 nM.
With `Cc1ccc(-c2cn3nc(C(=O)N[C@@H](C)c4ccc(F)cc4)cc3c(=O)[nH]2)cc1Cl` [6-82] the IC50 was 1.8 nM.
`Cc1ccc(-c2cn3nc(C(=O)NCCC(F)(F)F)c(C(F)(F)F)c3c(=O)[nH]2)cc1F` [6-148] showed an IC50 of 8.4 nM.
In the case of `O=C(N[C@H](CCO)c1ccc(F)cc1)c1cc2c(=O)[nH]c(-c3ccc4ccccc4n3)cn2n1` [6-12], the IC50 is reported as 3.05 nM.
Compound `CC(NC(=O)c1nn2cc(-c3ccc4ccccc4c3)[nH]c(=O)c2c1C#N)c1cccc(Br)c1` (centres unmarked) [Example 3-47, N-[1-(3-Bromophenyl)ethyl]-3-cyano-6-(2-naphthyl)-4-oxo-5H-pyrazolo[1,5-a]pyrazine-2-carboxamide] has an IC50 of 5.45 nM.
`CC(C)(O)[C@@H](NC(=O)c1nn2cc(-c3ccc(Cl)c(F)c3)[nH]c(=O)c2c1C(F)(F)F)c1ccc(F)cc1` [6-649] was tested, and the IC50 was 9.97 nM.
Work on `Cc1ccc(-c2cn3nc(C(=O)NCC(O)C(F)F)c(C4CC4)c3c(=O)[nH]2)cc1F` (racemic) [6-369] yielded an IC50 of 3.05 nM.
With `Cc1cccc2ncc(-c3cn4nc(C(=O)NC(C)c5ccc(Cl)c(Cl)c5)c(C(C)C)c4c(=O)[nH]3)cc12` (centres unmarked) [Example 4-52, N-[1-(3,4-Dichlorophenyl)ethyl]-3-isopropyl-6-(5-methyl-3-quinolyl)-4-oxo-5H-pyrazolo[1,5-a]pyrazine-2-carboxamide] the IC50 was 4.05 nM.
For `Cc1ccc(-c2cn3nc(C(=O)NC4CC4C(C)C)c(C(F)(F)F)c3c(=O)[nH]2)cc1F` (single isomer, unassigned) [6-145], the IC50 was 6.25 nM.
`Cc1ccc(-c2cn3nc(C(=O)N[C@@H](c4ccc(F)cc4)C(C)(C)O)c(C)c3c(=O)[nH]2)c(F)c1C` [Example 1-164, 6-(2-Fluoro-3,4-dimethylphenyl)-N-[(15)-1-(4-fluorophenyl)-2-hydroxy-2-methylpropyl]-3-methyl-4-oxo-4,5-dihydropyrazolo[1,5-a]pyrazine-2-carboxamide] showed an IC50 of 2.9 nM.
`CC[C@H](C)NC(=O)c1nn2cc(-c3ccc(Cl)c(C)c3)[nH]c(=O)c2c1C1CC1` [6-331] was tested, and the IC50 was 4.85 nM.
In the case of `Cc1ccc(-c2cn3nc(C(=O)N[C@@H](c4ccccc4)[C@@H](O)CO)cc3c(=O)[nH]2)cc1C` [6-353], the IC50 is reported as 3.73 nM.
With `Cc1ccc(-c2cn3nc(C(=O)N[C@H](C)CO)c(C4CC4)c3c(=O)[nH]2)cc1C` [Example 1-154, 3-Cyclopropyl-6-(3,4-dimethylphenyl)-N-[(2R)-1-hydroxpropan-2-yl]-4-oxo-4,5-dihydropyrazolo-[1,5-a]pyrazine-2-carboxamide] the IC50 was 2.6 nM.
Work on `O=C(N[C@@H]1CCN(CC(F)(F)F)C1)c1nn2cc(-c3ccc4ccccc4c3)[nH]c(=O)c2c1C(F)(F)F` (racemic) [6-521] yielded an IC50 of 2.23 nM.
Compound `Cc1ccc(-c2cn3nc(C(=O)NC(C)c4ccc(O)cc4)cc3c(=O)[nH]2)cc1C` (single isomer, unassigned) [6-348] has an IC50 of 3.55 nM.
With `O=C(NC(c1cccc(F)c1)C(F)F)c1cc2c(=O)[nH]c(-c3ccc4ccccc4c3)cn2n1` (centres unmarked) [Example 2-13, N-[2,2-Difluoro-1-(3-fluorophenyl)ethyl]-6-(2-naphthyl)-4-oxo-4,5-dihydropyrazolo[1,5-a]pyrazine-2-carboxamide] the IC50 was 1.3 nM.
With `O=C(N[C@@H](CCO)c1ccc(F)cc1)c1cc2c(=O)[nH]c(-c3ccc4ccccc4c3)cn2n1` [Example 1-69, N-[(1S)-1-(4-Fluorophenyl)-3-hydroxypropyl]-6-(naphthalen-2-yl)-4-oxo-4,5-dihydropyrazolo-[1,5-a]pyrazine-2-carboxamide] the IC50 was 2.25 nM.
`Cc1ccc(-c2cn3nc(C(=O)N[C@@H](C)C4CC4)c(C4CC(F)(F)C4)c3c(=O)[nH]2)cc1Cl` [6-560] gave an IC50 of 1.6 nM.
Compound `COc1ccc(-c2cn3nc(C(=O)N[C@@H](c4ccc(F)cc4)C(F)(F)CO)c(C4CC4)c3c(=O)[nH]2)cc1F` [6-586] has an IC50 of 1.35 nM.
`O=C(NC1CCN(CC(F)F)C1)c1nn2cc(-c3ccc4ccccc4c3)[nH]c(=O)c2c1C(F)(F)F` (single isomer, unassigned) [6-520] showed an IC50 of 3.15 nM.
`COc1ccc(C2(NC(=O)c3cc4c(=O)[nH]c(-c5ccc6ccccc6c5)cn4n3)CN(C(=O)OC(C)(C)C)C2)cc1` [Example 1-57, tert.-Butyl 3-(4-methoxyphenyl)-3-({[6-(naphthalen-2-yl)-4-oxo-4,5-dihydropyrazolo[1,5-a]pyrazin-2-yl]carbonyl}amino)azetidine-1-carboxylate] gave an IC50 of 4.9 nM.
Work on `COc1cc(-c2cn3nc(C(=O)NC4(c5ccc(F)cc5)CN(C)C4)c(C4CC4)c3c(=O)[nH]2)ccc1Cl` [6-485] yielded an IC50 of 3.4 nM.
`Cc1cc(-c2cn3nc(C(=O)NCC(N)C(F)(F)F)c(C4CC4)c3c(=O)[nH]2)ccc1C(F)(F)F` (racemic) [6-130] showed an IC50 of 29.5 nM.
Work on `Cc1cc(-c2cn3nc(C(=O)NC(c4ccc(F)cc4)C4(O)CC4)c(C4CC4)c3c(=O)[nH]2)ccc1F` (racemic) [6-650] yielded an IC50 of 1.55 nM.
In the case of `Cc1cccc2ncc(-c3cn4nc(C(=O)N[C@H]5c6ccccc6C[C@H]5O)c(C(C)C)c4c(=O)[nH]3)cc12` [Example 4-69, N-[(7S,2R)-2-Hydroxy-2,3-dihydro-1H-inden-1-yl]-6-(5-methylquinolin-3-yl)-4-oxo-3-(propan-2-yl)-4,5-dihydropyrazolo[1,5-a]pyrazine-2-carboxamide], the IC50 is reported as 2 nM.
`COc1ccc(C(C)NC(=O)c2nn3cc(-c4cnc5cccc(C)c5c4)[nH]c(=O)c3c2C(C)C)cc1F` (centres unmarked) [Example 4-71, N-[1-(3-Fluoro-4-methoxyphenyl)ethyl]-3-isopropyl-6-(5-methyl-3-quinolyl)-4-oxo-5H-pyrazolo[1,5-a]pyrazine-2-carboxamide] gave an IC50 of 2.4 nM.
`Cc1ccc(-c2cn3nc(C(=O)NC4(c5ccc(F)cc5)CN(C)C4)c(C(C)C)c3c(=O)[nH]2)cc1C` [Example 1-91, 6-(3,4-Dimethylphenyl)-N-[3-(4-fluorophenyl)-1-methylazetidin-3-yl]-4-oxo-3-(propan-2-yl)-4,5-dihydropyrazolo[1,5-a]pyrazine-2-carboxamide] showed an IC50 of 0.915 nM.
Work on `C[C@@H](NC(=O)c1cc2c(=O)[nH]c(-c3ccc4c(c3)CCC4)cn2n1)c1ccc(F)cc1` [Example 1-98, 6-(2,3-Dihydro-1H-inden-5-yl)-N-[(1R)-1-(4-fluorophenyl)ethyl]-4-oxo-4,5-dihydropyrazolo[1,5-a]-pyrazine-2-carboxamide] yielded an IC50 of 3.45 nM.
Work on `Cc1ccc([C@H](C)NC(=O)c2nn3c(C)c(-c4ccc5ccccc5c4)[nH]c(=O)c3c2C)cc1` [Example 3-20, 3,7-Dimethyl-N-[(7S)-1-(4-methylphenyl)ethyl]-6-(naphthalen-2-yl)-4-oxo-4,5-dihydropyrazolo[1,5-a]pyrazine-2-carboxamide] yielded an IC50 of 8 nM.
Compound `COc1ccc(C(C)NC(=O)c2cc3c(=O)[nH]c(-c4ccc5ccccc5c4)cn3n2)cc1` (centres unmarked) [Example 2-3, N-[1-(4-Methoxyphenyl)ethyl]-6-(2-naphthyl)-4-oxo-4,5-dihydropyrazolo[1,5-a]pyrazine-2-carboxamide] has an IC50 of 1.65 nM.
Compound `O=C(N[C@H](CCO)c1ccc(F)cc1)c1nn2cc(-c3cccc(Cl)c3)[nH]c(=O)c2c1C1CC1` [6-679] has an IC50 of 1.09 nM.
`CC(=O)N1CC(NC(=O)c2cc3c(=O)[nH]c(-c4ccc5ccccc5c4)cn3n2)(c2ccc(F)cc2)C1` [Example 1-146, N-[1-Acetyl-3-(4-fluorophenyl)azetidin-3-yl]-6-(2-naphthyl)-4-oxo-5H-pyrazolo[1,5-a]pyrazine-2-carboxamide] showed an IC50 of 4.5 nM.
Compound `Cc1ccc(-c2cn3nc(C(=O)NC(c4ccccc4)C(O)C(F)(F)F)c(C)c3c(=O)[nH]2)cc1F` (centres unmarked) [6-407] has an IC50 of 1.03 nM.
For `Cc1cccc2ncc(-c3cn4nc(C(=O)N[C@H](CCO)c5ccc(F)cc5)c(C(C)C)c4c(=O)[nH]3)cc12` [Example 1-56, N-[(1R)-1-(4-Fluorophenyl)-3-hydroxypropyl]-6-(5-methylquinolin-3-yl)-4-oxo-3-(propan-2-yl)-4,5-dihydropyrazolo[1,5-a]pyrazine-2-carboxamide], the IC50 was 0.985 nM.
